According to US12612380B2, “Non-lysosomal glucosylceramidase inhibitors and uses thereof” (ALECTOS THERAPEUTICS INC., priority 2019, dated 2026):

What was measured:
[1] = target: T1, GBA2 (Homo sapiens, UniProt Q9HCG7); assay: Binding specificity (selectivity) for GBA2 over other enzymes; type: biochemical; conditions: compared to a suitable reference compound, e.g. NB-DNJ (miglustat) or AMP-DNM
T1 sequence (Q9HCG7 1-927): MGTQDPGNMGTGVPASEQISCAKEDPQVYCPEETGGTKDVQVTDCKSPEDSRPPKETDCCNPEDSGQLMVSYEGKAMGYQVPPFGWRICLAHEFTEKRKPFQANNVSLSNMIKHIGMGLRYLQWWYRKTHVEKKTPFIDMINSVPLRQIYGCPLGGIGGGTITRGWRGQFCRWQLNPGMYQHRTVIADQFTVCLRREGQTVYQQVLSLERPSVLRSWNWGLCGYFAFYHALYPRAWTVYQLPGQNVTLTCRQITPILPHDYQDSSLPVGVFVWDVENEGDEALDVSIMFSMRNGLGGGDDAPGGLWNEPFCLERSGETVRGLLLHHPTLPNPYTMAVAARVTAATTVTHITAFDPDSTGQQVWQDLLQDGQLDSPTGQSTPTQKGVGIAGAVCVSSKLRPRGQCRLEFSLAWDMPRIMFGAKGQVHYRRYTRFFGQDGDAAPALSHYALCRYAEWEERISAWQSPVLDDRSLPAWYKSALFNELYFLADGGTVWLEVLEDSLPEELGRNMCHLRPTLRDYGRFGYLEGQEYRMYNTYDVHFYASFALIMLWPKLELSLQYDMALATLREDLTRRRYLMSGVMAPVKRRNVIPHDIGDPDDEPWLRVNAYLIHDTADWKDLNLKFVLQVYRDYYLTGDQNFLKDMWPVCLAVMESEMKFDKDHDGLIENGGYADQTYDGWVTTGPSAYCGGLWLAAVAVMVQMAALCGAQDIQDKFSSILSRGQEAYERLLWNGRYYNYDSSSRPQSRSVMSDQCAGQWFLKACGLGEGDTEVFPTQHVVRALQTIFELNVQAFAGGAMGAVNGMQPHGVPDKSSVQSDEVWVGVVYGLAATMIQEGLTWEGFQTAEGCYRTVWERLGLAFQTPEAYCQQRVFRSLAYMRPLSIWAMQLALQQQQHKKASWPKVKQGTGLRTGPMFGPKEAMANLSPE

[2] = target: T1, GBA2; assay: Determination of IC50 values for inhibition of GBA2 in cell lysate; type: biochemical; design: host or cells: HEK293T (lentiviral transduction, puromycin selection); used as cellular homogenate
Method in brief: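 Homogenate of HEK293T cells stably overexpressing human GBA2 (0.083 mg/mL final), pretreated with 20 μM GCase inhibitor, preincubated 5 min at 37 °C with compound, then reacted 20 min with 250 μM 4-methylumbelliferyl-β-D-glucopyranoside at pH 5.5 (citrate-phosphate, 1% C10E6). Fluorescence read at 365/450 nm after alkaline stop; IC50 from log-inhibitor curve fit.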

[3] = Brain concentration when administered in vivo; conditions: compared to a suitable reference compound, e.g. NB-DNJ (miglustat) or AMP-DNM
Description: Permeability can be assessed using a variety of standard experimental techniques, including without limitation in situ perfusion, ex vivo tissue diffusion, in vitro cell monolayers (e.g. Caco-2 cells, MDCK cells, LLC-PK1 cells), and artificial cell membranes (e.g. PAMPA assay); suitable techniques for measuring effective permeability (Peff) or apparent permeability (Papp) are reviewed for example by Volpe in The AAPS Journal, 2010, 12(4), 670-678. In some embodiments, one or more of the compounds according to the invention may show enhanced permeability when tested in one or more of these assays for determining Peff or Papp. […] In some embodiments, “enhanced permeability” means an increase in measured Peff or Papp by any value between about 10% and about 100%, or of any integer value between about 10% and about 100%, for example, about 10%, 20%, 30%, 40%, 50%, 60%, 70%, 80%, 90%, 100%, or over 100%, or an increase by about 1-fold, 2-fold, or 3-fold, or more, as compared to a suitable reference compound such as, for example, N-butyldeoxynojirimycin (NB-DNJ, miglustat) or N-(5-adamantane-1-yl-methoxy)pentyl)-deoxynojirimycin (AMP-DNM, Genz-529648). In some embodiments, “enhanced permeability” means a measurable Papp value (i.e. a value greater than zero) in a suitable assay to measure Papp using in vitro cell monolayers. In some embodiments, “enhanced permeability” means a Papp value greater than 2×10^−6 cm/s in a suitable assay to measure Papp using in vitro cell monolayers. In alternative embodiments, “enhanced permeability” means a Papp value in the range 2×10^−6 cm/s to 40×10^−6 cm/s in a suitable assay to measure Papp using in vitro cell monolayers. In some embodiments, “higher brain concentration” means an increase in measured brain concentration when the compound is administered in vivo by any value between about 10% and about 100%, or of any integer value between about 10% and about 100%, for example, about 10%, 20%, 30%, 40%, 50%, 60%, 70%, 80%, 90%, 100%, or over 100%, or an increase by about 1-fold, 2-fold, 3-fold, 4-fold, 5-fold, 10-fold, 20-fold, 30-fold, 40-fold, or 50-fold, or more, as compared to a suitable reference compound such as, for example, N-butyldeoxynojirimycin (NB-DNJ, miglustat) or N-(5-adamantane-1-yl-methoxy)pentyl)-deoxynojirimycin (AMP-DNM, Genz-529648).

SMILES | binding specificity (IC50 or Ki of other molecule / GBA2) [1] | IC50 [2] [nM] | brain concentration when administered in vivo [3]
C[C@@H]1[C@@H](O)[C@H](O)[C@@H](O)CN1CCc1c(F)ccc(Cl)c1F [Example 49, (2R,3R,4R,5S)-1-(3-chloro-2,6-difluorophenethyl)-2-methylpiperidine-3,4,5-triol] | enhanced binding specificity | < 100 | higher brain concentrations
C[C@@H]1[C@@H](O)[C@H](O)[C@@H](O)CN1CCc1ccc2c(c1)OCO2 [Example 70, (2R,3R,4R,5S)-1-(2-(benzo[d][1,3]dioxol-5-yl)ethyl)-2-methylpiperidine-3,4,5-triol] | enhanced binding specificity | < 100 | higher brain concentrations
